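All cell lines were grown in 96-well plates and treated with compound for 48 hours. The concentration for 50% growth inhibition is given as GI50. TGI marks complete inhibition of growth.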
What was measured:
Test in all cases: DTP human tumour cell line panel, 48 h
CAKI-1 renal = test system: CAKI-1 renal
HCT-116 colon = test system: HCT-116 colon
K-562 leukemia = test system: K-562 leukemia
MDA-MB-231 breast = test system: MDA-MB-231 breast
NCI-H460 lung = test system: NCI-H460 lung
SF-295 CNS = test system: SF-295 CNS
SK-MEL-28 melanoma = test system: SK-MEL-28 melanoma
SN12C renal = test system: SN12C renal
TK-10 renal = test system: TK-10 renal
UACC-257 melanoma = test system: UACC-257 melanoma

Row | SMILES | GI50 (CAKI-1 renal) [µM] | TGI (CAKI-1 renal) [µM] | GI50 (HCT-116 colon) [µM] | TGI (HCT-116 colon) [µM] | GI50 (K-562 leukemia) [µM] | TGI (K-562 leukemia) [µM] | GI50 (MDA-MB-231 breast) [µM] | TGI (MDA-MB-231 breast) [µM] | GI50 (NCI-H460 lung) [µM] | TGI (NCI-H460 lung) [µM] | GI50 (SF-295 CNS) [µM] | TGI (SF-295 CNS) [µM] | GI50 (SK-MEL-28 melanoma) [µM] | TGI (SK-MEL-28 melanoma) [µM] | GI50 (SN12C renal) [µM] | TGI (SN12C renal) [µM] | GI50 (TK-10 renal) [µM] | TGI (TK-10 renal) [µM] | GI50 (UACC-257 melanoma) [µM] | TGI (UACC-257 melanoma) [µM]
1 | Cc1ccc2nc(-c3ccc(OCC(=O)N=Nc4c(O)[nH]c5ccccc45)cc3)[nH]c2c1 | 2.8 | 10.2 | 2.26 | 5.35 | 2.43 | 9.44 | 1.83 | 3.93 | 2.01 | 4.06 | 19.4 | 49.7 | 2.61 | 7 | 2.42 | 7.73 | 12.8 | 30.8 | 29.8 | > 100
2 | C=C1C(=O)O[C@H]2[C@H]1CC/C(COC(=O)NCc1ccc(OC)cc1)=C\CC[C@@]1(C)O[C@@H]21 | 0.628 | 2.08 | 0.471 | 1.02 | 0.897 | 9.08 | 1.17 | 3.96 | 3.16 | 18.2 | 11.1 | 25 | 0.726 | 1.7 | 3.4 | 12.4 | 0.359 | 1.51 | 0.766 | 2.55
3 | CCCCCCCC(=O)OCCCC1[C@]2(C)CC[C@@]3(C)C([C@H](C)CCC=C(C)C)CC[C@]3(C)C2CC[C@]12OC2(C)C (some centres not stated) | 23.8 | 48.9 | 52.2 | > 100 | 44.1 | > 100 | 10.8 | 34.6 | 26.2 | 71 | 31.2 | > 100 | 42.4 | > 100 | – | – | 30.6 | > 100 | 68.2 | > 100
4 | O=C(/C=C/c1ccc(C(F)(F)F)cc1)Nc1ccc(C=C2c3ccccc3C(=O)c3ccccc32)cc1 | 3.39 | > 100 | 4 | > 100 | – | – | 16 | > 100 | 5.48 | > 100 | 4.24 | > 100 | 7.38 | > 100 | 26.7 | > 100 | 23.6 | > 100 | 3.87 | > 100
5 | COc1ccc(C(=O)c2cc3c(N)c(C(=O)Nc4ccccc4)sc3nc2C)cc1 | 0.656 | > 100 | 0.635 | > 100 | 0.526 | > 100 | 2.43 | > 100 | 0.439 | 3.93 | 0.639 | > 100 | – | – | 1.68 | > 100 | 8.04 | > 100 | 47.1 | > 100
6 | O=C(Nc1ccc(F)cc1F)c1cc(Cl)ccc1O | 1.31 | 5.51 | 1.23 | 3.31 | – | – | 1.74 | 7.48 | 1.42 | 19.2 | 1.56 | 3.16 | 0.754 | 8.69 | 1.29 | 8.1 | 5.53 | 31.8 | 0.397 | 2.68
